Experimental data from patent publication US6916604B2, “Uses of synthetic peptides corresponding to telopeptide sequences of cross-linked type I collagen metabolites” (Washington Research Foundation, priority 1987, dated 2005).
No end group written: not given here.

Tested on: MAb-1H11
Assay: ELISA of peptides competing against plated-out P1, or plated out as BSA conjugates, for MAb-1H11 binding
Design: species or system mouse
Settings: for recognition of free cross-linking amino acids by MAb-1H11: made by acid hydrolysis from bone collagen or as present naturally in urine; for recognition by MAb-1H11: ELISA, free peptides competing against plated-out P1, or conjugated to BSA and plated out; for competitive binding with MAb-1H11 (FIG. 9): absorbance at 450 nm of detectable marker bound to plated-out P1 vs concentration of free peptide

Row | recognition of free cross-linking amino acids by MAb-1H11 | recognition by MAb-1H11 | Compound | competitive binding with MAb-1H11 (FIG. 9)
1 | not recognized |  | NC(CCc1c[n+](CC(O)CCC(N)C(=O)O)cc(O)c1CC(N)C(=O)O)C(=O)O (stereo not drawn) [HP, hydroxylysyl pyridinoline, reference compound] | 
2 | not recognized |  | NC(CCCC[n+]1cc(O)c(CC(N)C(=O)O)c(CCC(N)C(=O)O)c1)C(=O)O (stereo not drawn) [LP, lysyl pyridinoline, reference compound] | 
3 |  | not recognized | QYDGKGVGC [SEQ ID NO:1] | little if any significant competitive binding
4 |  | not recognized | YDEKSTGGC [SEQ ID NO:2] | little if any significant competitive binding
